Reference: patent publication US9242988B2, “2′-cyano substituted nucleoside derivatives and methods of use thereof for the treatment of viral diseases” (Merck Sharp & Dohme Corp., priority 2012, dated 2016)
Where two headings read alike, the source gives them in different places.

System: HCV replicon cells (1b)
Experiment: Cell-Based HCV Replicon Assay
Method: To measure cell-based anti-HCV activity of selected compounds of the present invention, replicon cells were seeded at 5000 cells/well in 96-well collagen I-coated Nunc plates in the presence of the test compound. Various concentrations of test compound, typically in 10 serial 2-fold dilutions, were added to the assay mixture, with the starting concentration ranging from 250 μM to 1 μM. The final concentration of dimethylsulfoxide was 0.5%, fetal bovine serum was 5%, in the assay media. Cells were harvested on day 3 by the addition of 1× cell lysis buffer (Ambion cat #8721). The replicon RNA level was measured using real time PCR (Taqman assay). The amplicon was located in 5B. The PCR primers were: 5B.2F, […] (SEQ ID. NO. 1); 5B.2R, […] (SEQ ID. NO. 2); the probe sequence was FAM-labeled […] (SEQ ID. NO. 3). GAPDH RNA was used as endogenous control and was amplified in the same reaction as NS5B (multiplex PCR) using primers and VIC-labeled probe recommended by the manufacturer (PE Applied Biosystem). The real-time RT-PCR reactions were run on ABI PRISM 7900HT Sequence Detection System using the following program: 48° C. for 30 minutes, 95° C. for 10 minutes, 40 cycles of 95° C. for 15 sec, 60° C. for 1 minute. The ΔCT values (CT5B-CTGAPDH) were plotted against the concentration of test compound and fitted to the sigmoid dose-response model using XLfit4 (MDL). […] Alternatively, to quantitate the absolute amount of replicon RNA, a standard curve was established by including serially diluted T7 transcripts of replicon RNA in the Taqman assay. All Taqman reagents were from PE Applied Biosystems. Such an assay procedure was described in detail in e.g. Malcolm et al., Antimicrobial Agents and Chemotherapy 50: 1013-1020 (2006).

[1] = Hepatitis C virus, 72 h, replicon RNA level by real time PCR (Taqman), cells harvested on day 3; read-out: 1b EC50
[2] = Hepatitis C virus, 72 h, read-out: 1b EC50
[3] = replicon RNA level by real time PCR (Taqman), cells harvested on day 3; read-out: 1b EC50

Q: With `CC(C)OP1(=O)OC[C@H]2O[C@@H](c3cnc4c(N)ncnn34)[C@](C)(C#N)[C@@H]2O1` (single isomer, unassigned) [Compound 20] as the molecule, how does the EC50 [1] read?
A: 77 µM

Q: With `CC(C)OC(=O)[C@H](C)NP(=O)(OC[C@H]1O[C@@H](c2ccc3c(N)ncnn23)[C@](C)(C#N)[C@@H]1O)Oc1ccccc1` (single isomer, unassigned) [Compound 11] as the molecule, how does the EC50 [2] read?
A: 35 µM

Q: `CC(C)(C)COP1(=O)OC[C@H]2O[C@@H](c3ccc4c(N)ncnn34)[C@](C)(C#N)[C@@H]2O1` (single isomer, unassigned) [Compound 18] was tested. Which EC50 [1] did it give?
A: 33 µM

Q: With `CC(C)(C)COP1(=O)OC[C@H]2O[C@@H](c3ccc4c(N)ncnn34)[C@](C)(C#N)[C@@H]2O1` (single isomer, unassigned) [Compound 19] as the molecule, how does the EC50 [3] read?
A: 46 µM

Q: Which EC50 [1] does the source give for `CC(C)OC(=O)COP(=O)(N[C@@H](C)C(=O)OC(C)C)OC[C@H]1O[C@@H](c2ccc3c(N)ncnn23)[C@](C)(C#N)[C@@H]1O` (single isomer, unassigned) [Compound 12] here?
A: > 100 µM

Q: For `CC(C)OC(=O)[C@H](C)NP(=O)(OC[C@H]1O[C@@H](c2cnc3c(N)ncnn23)[C@](C)(C#N)[C@@H]1O)Oc1ccccc1` (single isomer, unassigned) [Compound 15], which EC50 (read-out: 1b EC50; replicon RNA level by real time PCR (Taqman), cells harvested on day 3) is on record?
A: > 100 µM

Q: `CC(C)OP1(=O)OC[C@H]2O[C@@H](c3cnc4c(N)ncnn34)[C@](C)(C#N)[C@@H]2O1` (single isomer, unassigned) [Compound 21] was tested. Which EC50 [3] did it give?
A: > 100 µM

Q: How did the EC50 [2] turn out when `CC(C)OC(=O)[C@H](C)NP(=O)(OC[C@H]1O[C@@H](c2cnc3c(N)ncnn23)[C@](C)(C#N)[C@@H]1O)Oc1ccccc1` (single isomer, unassigned) [Compound 14] was run?
A: > 100 µM
